The values below come from patent US11304974B2, “Nanosystems comprising silver and antibiotics and their use for the treatment of bacterial infections” (priority 2017, dated 2022).

Like-named read-outs stand apart in the source and are kept apart here.

For experiment [1], the system named is Pseudomonas DacB Mutant (hiperproducing AMPC). In words: Silver-antibiotics interaction study, MicroScan (Example 4). It is filed as cell-based, Pseudomonas aeruginosa. The conditions noted are these: subinhibitory colloidal silver (½ or 1/10 MIC). Here is the method:
(§1) The effect of subinhibitory concentrations of colloidal silver (namely, ½ and 1/10 dilution of the MIC obtained in Example 3) in the presence of different types of antibiotics was tested.
(§2) For this, an automated equipment MicroScan AutoScan 4 (Siemens) was used, using Gram negative (Becman Coulter NM37) and Gram positive (Becman Coulter PM28) cards.
(§3) Each of these broths served as inoculum for the cards with antibiotics (for each strain, thus 3 cards were prepared). • Incubating the plates with antibiotics (in presence and absence of silver) at 37° C. for 24 h. • Reading the cards by use of LabPro software, and interpretation of the obtained values of MIC (determine if the silver reduces the initial MCI of each antibiotic).

The subject of experiment [2] is S. aureus Sa-11 (strain 10). In words: Epsilometry E-test, absence and presence of silver (Example 5). Type of experiment: cell-based. The note with it: Staphylococcus aureus, strain 10 (S. aureus Sa-11). Here is the method: (§4) In order to evaluate the synergy of collargol-antibiotics an epsilometry E-test was carried out. Said test is based on the agar diffusion method and relates to using a strip with a predefined steady gradient of 15 concentrations of the antibiotic being tested. After strain growth, an elliptical inhibition halo, being the MIC the antibiotic concentration corresponding to the cutting point.
(§5) It was performed for the antibiotics vancomycin, linezolid and tedizolid, in absence and presence of silver (½ and 1/10 MIC).

In experiment [3] the test system is S. aureus Sa-13 (strain 12). Described as above. Type of experiment: cell-based. The note with it: Staphylococcus aureus, strain 12 (S. aureus Sa-13). Here is the method:
as §4, §5

Experiment [4] has as its system S. aureus Sa-3 (strain 3). The experiment is described as above. The note with it: Staphylococcus aureus, strain 3 (S. aureus Sa-3). It is filed as cell-based. Here is the method:
as §4, §5

The test system of experiment [5] is S. aureus Sa-10 (strain 9). The experiment is described as above. It is filed as cell-based. The conditions noted are these: Staphylococcus aureus, strain 9 (S. aureus Sa-10). Here is the method:
as §4, §5

Experiment [6] concerns S.aureus ATCC 700698 Sa-SARM (strain 15). The experiment is described as above. It is filed as cell-based. The note with it: Staphylococcus aureus, ATCC700698, strain 15 (S.aureus ATCC 700698, Sa-SARM). On the procedure:
as §4, §5

Experiment [7] concerns S. epidermidis Se-1 (strain 14). The experiment is described as above. Type of experiment: cell-based. The conditions noted are these: Staphylococcus epidermidis, strain 14 (S. epidermidis Se-1). Here is the method: as §4, §5
Experiment [8] has as its system S. aureus Sa-12 (strain 11). Described as above. Type of experiment: cell-based. The note with it: Staphylococcus aureus, strain 11 (S. aureus Sa-12). On the procedure: as §4, §5
Experiment [9] concerns S. aureus Sa-1 (strain 1). The experiment is described as above. It is filed as cell-based. The conditions noted are these: Staphylococcus aureus, strain 1 (S. aureus Sa-1). Here is the method:
as §4, §5

The test system of experiment [10] is S. aureus Sa-9 (strain 8). Described as above. It is filed as cell-based. The conditions noted are these: Staphylococcus aureus, strain 8 (S. aureus Sa-9). Here is the method: as §4, §5
For experiment [11], the system named is Klebsiella BLEE +. Nature of the experiment: Silver-antibiotics interaction study, MicroScan (Example 4). Type of experiment: cell-based, Klebsiella pneumoniae. The note with it: subinhibitory colloidal silver (½ or 1/10 MIC). Here is the method:
as §1, §2, §3

The test system of experiment [12] is Pseudomonas MexR Mutant (efflux pump over-expression). The description is as above. It is filed as cell-based, Pseudomonas aeruginosa. The note with it: colloidal silver at ½ MIC.
Description: as §2

Experiment [13] relates to E. coli BLEE +. The experiment is described as above. It is filed as cell-based, Escherichia coli. The conditions noted are these: subinhibitory colloidal silver (½ or 1/10 MIC). On the procedure:
as §1, §2, §3

The mark [14] stands for this setting: MH agar with 1/10 MIC of colargol, read-out: MIC (E-test) MH-1/10 MIC.
[15] abbreviates: MH agar with ½ MIC of colargol, read-out: MIC (E-test) MH-½ MIC.
The mark [16] stands for this setting: MH agar without silver, read-out: MIC (E-test) MH (without silver).

As to `CO/N=C(\C(=O)N[C@@H]1C(=O)N2C(C(=O)[O-])=C(C[N+]3(C)CCCC3)CS[C@H]12)c1csc(N)n1` [Cefepime], the “Effect of silver on the strain's sensitivity to the antibiotic” value (shortened to “Effect of silver”) in experiment [1] is on record as “moderate effect improving the MIC values”.
With `C[C@@H]1O[C@@H]1P(=O)(O)O` [Fosfomicine, Fosfomycin], in experiment [1], the “Effect of silver” value is reported as “change to sensitive”.
On to `CC(=O)NC[C@H]1CN(c2ccc(N3CCOCC3)c(F)c2)C(=O)O1` [Linezolid], for which the MIC was 1.5 µg/mL in experiment [2] (setting [14]); 1.5 µg/mL in experiment [2] (setting [15]); 1.5 µg/mL in [2] (setting [16]); 0.38 µg/mL in experiment [3] (setting [14]); 0.5 µg/mL in experiment [3] (setting [15]); 0.5 µg/mL in experiment [3] (setting [16]). Besides, the MIC in experiment [4] (setting [14]) turned out to be 1.5 µg/mL; in experiment [4] (setting [15]), 1 µg/mL; in experiment [4] (setting [16]), 1.5 µg/mL; in experiment [5] (setting [14]), 1 µg/mL; in experiment [5] (setting [15]), 0.75 µg/mL; in [5] (setting [16]), 0.75 µg/mL. Also, the MIC turned out to be 0.5 µg/mL in experiment [6] (setting [14]); 0.38 µg/mL in experiment [6] (setting [15]); 0.5 µg/mL in experiment [6] (setting [16]); 0.75 µg/mL in experiment [7] (setting [14]); 0.5 µg/mL in experiment [7] (setting [15]); 0.75 µg/mL in experiment [7] (setting [16]). Moreover, the MIC in [8] (setting [14]) turned out to be 0.5 µg/mL; in experiment [8] (setting [15]) it was 0.5 µg/mL; in experiment [8] (setting [16]), 1 µg/mL.
Consider `CCN1CCN(C(=O)N[C@@H](C(=O)N[C@@H]2C(=O)N3[C@@H]2SC(C)(C)[C@@H]3C(=O)O)c2ccccc2)C(=O)C1=O` [Piperacillin], for which the “Effect of silver” value in [1] is “moderate effect improving the MIC values”.
Turning to `Cn1nnc(-c2ccc(-c3ccc(N4C[C@H](CO)OC4=O)cc3F)cn2)n1` [Tedizolid], the MIC amounted to 0.25 µg/mL in experiment [2] (setting [15]); 0.38 µg/mL in experiment [2] (setting [16]); 0.19 µg/mL in [4] (setting [14]); 0.125 µg/mL in experiment [4] (setting [15]); 0.19 µg/mL in experiment [4] (setting [16]); 0.25 µg/mL in experiment [9] (setting [14]). The MIC in [9] (setting [15]) turned out to be 0.19 µg/mL; in experiment [9] (setting [16]), 0.19 µg/mL; in experiment [10] (setting [14]), 0.19 µg/mL; in experiment [10] (setting [15]) it was 0.19 µg/mL; in experiment [10] (setting [16]) it was 0.25 µg/mL; in experiment [5] (setting [14]), 0.38 µg/mL. Moreover, the MIC in experiment [5] (setting [15]) is 0.38 µg/mL; in [5] (setting [16]), 0.5 µg/mL; in [7] (setting [14]), 0.38 µg/mL; in experiment [7] (setting [15]), 0.25 µg/mL; in experiment [7] (setting [16]) it was 0.38 µg/mL; in experiment [8] (setting [15]), 0.25 µg/mL. Also, the MIC in experiment [8] (setting [16]) amounted to 0.25 µg/mL.
As to `C[C@H]1[C@H](NC(=O)/C(=N\OC(C)(C)C(=O)O)c2csc(N)n2)C(=O)N1S(=O)(=O)O` [aztreonam, Aztreonam], the entries for the “Effect of silver” value in experiment [11] and in [1] were “becomes sensitive” and “change to sensitive”, respectively.
In the case of `CO/N=C(\C(=O)N[C@@H]1C(=O)N2C(C(=O)O)=C(COC(C)=O)CS[C@H]12)c1csc(N)n1` [cefotaxime, Cefotaxime], the “Effect of silver” value in experiment [12] is given as “improvement in the MIC”.
With `NC[C@H]1O[C@H](O[C@H]2[C@H](O)[C@@H](O[C@H]3O[C@H](CO)[C@@H](O)[C@H](N)[C@H]3O)[C@H](N)C[C@@H]2N)[C@H](N)C[C@@H]1O` [tobramycin, Tobramycin], the “Effect of silver” value in experiment [13] is on record as “becomes sensitive”.
As for Colistin, the “Effect of silver” value in [1] is on record as “moderate effect improving the MIC values”; in [12] it was “improvement in the MIC”.
Regarding Gentamicin, in [13], the “Effect of silver” value is reported as “becomes sensitive”.
